In patent US8618286B2, “Benzoxazines, benzothiazines, and related compounds having NOS inhibitory activity” (NeurAxon, Inc., priority 2008, dated 2013):
Where a name gives a salt, the structure may show the parent alone.

Assays:
Format in all cases: biochemical
[1] = biological target: Nitric oxide synthase (neuronal, human recombinant) nNOS (Homo sapiens (Human), UniProt P29475); test: Human nNOS enzyme assay ([3H]-L-arginine to L-citrulline conversion); conditions: for Selectivity eNOS/nNOS: ratio of human eNOS IC50 to human nNOS IC50; for IC50: recombinant human nNOS
Method: (§1) nNOS (Human), eNOS (Human) and iNOS (Human) Enzyme Assay
(§2) Primary stock solutions of test compounds at a concentration of 6 mM were prepared from the 2 to 5 mg powder. The primary stock solutions of each test compound were prepared freshly in distilled water on the day of study to obtain a final concentration of 6 mM. For determination of IC50 values, 12 test compound concentrations were prepared as 3-fold serial dilutions. Concentration range of test compound utilized for nNOS were 0.001 to 300 μM and for eNOS were 0.003 to 1000 μM. The vehicle of the test compound or inhibitor was used as blank control. For non-specific activity, 100 μM L-NMMA was used. Runs using the IC50 concentration of L-NAME were done in parallel as controls.
(§3) All incubations are performed in duplicate
(§4) The reaction mixture was prepared on ice by adding the following components with a micropipette to a polypropylene microcentrifuge tube: • 10 μL of test compound, inhibitor or control (vehicle or L-NMMA) solution; • 25 μL of Reaction Buffer {25 mM Tris-HCl, 0.6 μM BH4, 0.2 μM FMN, 0.2 μM FAD}; • 5 μL of 10 mM NADPH solution {1 mM} (freshly prepared in 10 mM Tris-HCl (pH 7.4); • 5 μL of 6 mM CaCl2 {600 W}; • 5 μL of 1 mM Calmodulin {100 W}; and • 5 μL of 0.02 μg/μL nNOS or 0.12 μg/μL eNOS.
(§5) The above reaction mixture was pre-incubated at room temperature for 15 mins.
(§6) The reaction was started by the addition of the substrate (in 5 μL containing 1 μCi of [^3H]-L-Arginine+2.5 μM of unlabeled L-Arginine) to the reaction mixture. Total reaction volume is 60 μL.
(§7) The reaction was mixed using a vortex mixer and incubate the above reaction mixture at 37° C. in an incubator for 30 minutes.
(§8) To stop the reaction, 400 μL of ice-cold Stop Buffer was added at the end of the incubation period.
(§9) The reaction was then mixed using a vortex mixer, and the reaction samples were transferred to spin cups, which were centrifuged using a microcentrifuge, at 13,000 rpm for 30 sec. at room temperature.
(§10) The spin cups were removed from the holder, 450 μL of eluate (containing the unbound L-citrulline) were transferred to scintillation vials. 3 mL of scintillation fluid were added and the radioactivity was quantified in a liquid scintillation counter.
(§11) Data was analyzed using a Sigmoidal dose-response (variable slope) curve to determine the IC50 value of the test compound. Y=Bottom+(Top−Bottom)/(1+10^((Log IC50−X)*Hill Slope))

[2] = biological target: Nitric oxide synthase (endothelial, human recombinant) eNOS (Homo sapiens (Human), UniProt P29474); test: Human eNOS enzyme assay ([3H]-L-arginine to L-citrulline conversion)
Method: as §1, §2, §3, §4, §5, §6, §7, §8, §9, §10, §11

[3] = biological target: Recombinant human inducible NOS (iNOS) (Homo sapiens (Human), UniProt P35228); test: Human iNOS enzyme assay (Protocol 1 or Protocol 2, radiometric)
Method: The human iNOS assay was carried by either one of the two protocols as described herein:
Recombinant human inducible NOS (iNOS) was produced in Baculovirus-infected Sf9 cells (ALEXIS). In a radiometric method, NO synthase activity was determined by measuring the conversion of [^3H]L-arginine to [^3H]L-citrulline. To measure iNOS, 10 μL of enzyme was added to 100 μL of 100 mM HEPES, pH=7.4, containing 1 mM CaCl2, 1 mM EDTA, 1 mM dithiothreitol, 1 μM FMN, 1 μM FAD, 10 μM tetrahydrobiopterin, 120 μM NADPH, and 100 nM CaM.
To measure enzyme inhibition, a 15 μL solution of a test substance was added to the enzyme assay solution, followed by a pre-incubation time of 15 min at RT. The reaction was initiated by addition of 20 μL L-arginine containing 0.25 μCi of [^3H] arginine/mL and 24 μM L-arginine. The total volume of the reaction mixture was 150 μL in every well. The reactions were carried out at 37° C. for 45 minutes, The reaction was stopped by adding 20 μL of ice-cold buffer containing 100 mM HEPES, 3 mM EGTA, 3 mM EDTA, pH=5.5. [^3H]L-citrulline was separated by DOWEX (ion-exchange resin DOWEX 50 W×8-400, SIGMA) and the DOWEX was removed by spinning at 12,000 g for 10 min in the centrifuge. An aliquot (70 μL) of the supernatant was added to 100 μL of scintillation fluid, and the samples were counted in a liquid scintillation counter (1450 Microbeta Jet, Wallac). Specific NOS activity was reported as the difference between the activity recovered from the test solution and that observed in a control sample containing 240 mM of the inhibitor L-NMMA. All assays were performed at least in duplicate. Standard deviations are 10% or less.
Primary stock solutions of each test compound were prepared in distilled water on the day of study to obtain a final concentration of 6 mM. For the determination of IC50 values, 11 test compound concentrations were prepared as 3-fold serial dilutions. Test compounds were tested in the iNOS assay at a concentration of 1000 μM to 0.0169 μM. The vehicle of the test compound or inhibitor, distilled water, was used as blank control. For non-specific activity, 100 μM L-NMMA was run in parallel as a control.
All incubations were performed in duplicate
The reaction mixture was prepared on ice by the addition of the following components to the appropriate well of a 1.0 mL 96-well polypropylene plate:
10 μL of test compound, reference inhibitor, or control (vehicle or L-NMMA) solution;
25 μL of Reaction Buffer (50 mM Tris-HCl, 6 μM BH4, 2 μM FMN, 2 μM FAD);
5 μL of 10 mM NADPH solution;
5 μL of 1 μM Calmodulin; and
The reaction mixture was pre-incubated at room temperature for 15 minutes. Following this pre-incubation, the reaction was initiated by the addition of 5 μL of the substrate L-arginine (1 μCi of [^3H]-L-Arginine+30 μM of unlabeled L-Arginine) to the reaction mixture. The total reaction volume was 60 μL. The assay plate containing the reaction mixtures was sealed and incubated at 37° C. for 30 minutes. At the end of this incubation period, 400 μL of ice-cold Stop Buffer (the EDTA in the Stop Buffer chelates all of the available calcium) was added to each well to stop the reaction. 100 μL of equilibrated resin pH 5.5 was added to each of the assay wells. The reaction samples were vortexed and transferred to spin cups, after-which they were centrifuged at 13,000 rpm for 30 sec. The spin cups were removed from the holder and […] (containing the unbound L-citrulline) were added to the appropriate wells of a 96-well liquid scintillation plate. 175 μL of scintillation fluid were also added to each well. The plate was sealed, and radioactivity was quantitated using a Microbeta liquid scintillation counter.
Data were analyzed using a Sigmoidal dose-response (variable slope) curve to determine the IC50 value of the test compound. Y=Bottom+(Top−Bottom)/(1+10^((Log IC50−X)*Hill Slope))

Row | SMILES | Selectivity eNOS/nNOS [1] | IC50 [1] [nM] | IC50 [2] [µM] | IC50 [3] [µM]
1 | CN1CCCC1CCN1CCOc2cc(NC(=N)c3cccs3)ccc21 (centres unmarked) [Compound 2] | 25.3 | – | – | –
2 | N=C(Nc1ccc2c(c1)OCC(=O)N2CCN1CCCC1)c1cccs1 [Compound 3, N-(3-oxo-4-(2-(pyrrolidin-1-yl)ethyl)-3,4-dihydro-2H-benzo[b][1,4]oxazin-7-yl)thiophene-2-carboximidamide] | 16.2 | 850 | 13.8 | 1.5
3 | CN(C)CCN1C(=O)COc2cc(NC(=N)c3cccs3)ccc21 [Compound 5, N-(4-(2-(Dimethylamino)ethyl)-3-oxo-3,4-dihydro-2H-benzo[b][1,4]oxazin-7-yl)thiophene-2-carboximidamide] | 25.5 | 1840 | 47 | > 100
4 | CN(C)CCN1CCOc2cc(NC(=N)c3cccs3)ccc21 [Compound 6, N-(4-(2-(dimethylamino)ethyl)-3,4-dihydro-2H-benzo[b][1,4]oxazin-7-yl)thiophene-2-carboximidamide] | 208.5 | 200 | 41.7 | 10.9
5 | CCNCCN1CCOc2cc(NC(=N)c3cccs3)ccc21 [Compound 7, N-(4-(2-(ethylamino)ethyl)-3,4-dihydro-2H-benzo[b][1,4]oxazin-7-yl)thiophene-2-carboximidamide dihydrochloride] | 9.8 | 1060 | 10.4 | > 100
6 | CNCCN1CCOc2ccc(NC(=N)c3cccs3)cc21 [Compound 10, N-(4-(2-(methylamino)ethyl)-3,4-dihydro-2H-benzo[b][1,4]oxazin-6-yl)-thiophene-2-carboximidamide dihydrochloride] | 47.7 | 80 | 3.82 | 3.74
7 | CN(C)CCN1CCSc2cc(NC(=N)c3cccs3)ccc21 [Compound 12, N-(4-(2-(Dimethylamino)ethyl)-3,4-dihydro-2H-benzo[b][1,4]thiazin-7-yl)thiophene-2-carboximidamide dihydrochloride] | 159.1 | 120 | 19.1 | 62.9
8 | CN(CCN1CCSc2cc(NC(=N)c3cccs3)ccc21)CC(=O)O [Compound 17, 2-(methyl(2-(7-(thiophene-2-carboximidamido)-2H-benzo[b][1,4]thiazin-4(3H)-yl)ethyl)amino)acetic acid dihydrochloride] | 9.3 | 1160 | 10.9 | 241
9 | N=C(Nc1ccc2c(c1)SCCN2CCN1CCC[C@H]1C(=O)O)c1cccs1 [Compound 18, (S)-1-(2-(7-(Thiophene-2-carboximidamido)-2H-benzo[b][1,4]thiazin-4(3H)-yl)ethyl)pyrrolidine-2-carboxylic acid dihydrochloride] | 19 | 660 | 12.6 | 341

Now from value to molecule:

Row | Selectivity eNOS/nNOS [1] | IC50 [1] [nM] | IC50 [2] [µM] | IC50 [3] [µM] | SMILES
10 | 41.9 | – | – | – | CN1CCCC1CCN1C(=O)COc2cc(NC(=N)c3cccs3)ccc21 (centres unmarked) [Compound 1]
11 | 61.2 | 410 | 25.1 | 2.7 | N=C(Nc1ccc2c(c1)OCCN2CCN1CCCC1)c1cccs1 [Compound 4, N-(4-(2-(pyrrolidin-1-yl)ethyl)-3,4-dihydro-2H-benzo[b][1,4]oxazin-7-yl)thiophene-2-carboximidamide]
12 | 182.5 | 200 | 36.5 | 7.25 | CN(C)CCN1CCOc2ccc(NC(=N)c3cccs3)cc21 [Compound 9, N-(4-(2-(dimethylamino)ethyl)-3,4-dihydro-2H-benzo[b][1,4]oxazin-6-yl)-thiophene-2-carboximidamide]
13 | 101.6 | 240 | 24.4 | 117 | N=C(Nc1ccc2c(c1)SCCN2CCN1CCCC1)c1cccs1 [Compound 11, N-(4-(2-(pyrrolidin-1-yl)ethyl)-3,4-dihydro-2H-benzo[b][1,4]thiazin-7-yl)thiophene-2-carboximidamide]
14 | 52.2 | 190 | 9.92 | 33.1 | CN1CCCC1CCN1CCSc2cc(NC(=N)c3cccs3)ccc21 (centres unmarked) [Compound 13, N-(4-(2-(1-methylpyrrolidin-2-yl)ethyl)-3,4-dihydro-2H-benzo[b][1,4]thiazin-7-yl)thiophene-2-carboximidamide]
15 | 82.1 | 140 | 11.5 | 172 | N=C(Nc1ccc2c(c1)SCCN2CCN1CCCCC1)c1cccs1 [Compound 14, N-(4-(2-(Piperidin-1-yl)ethyl)-3,4-dihydro-2H-benzo[b][1,4]thiazin-7-yl)thiophene-2-carboximidamide]
16 | 134 | 150 | 20.1 | 40.7 | CCN(CC)CCN1CCSc2cc(NC(=N)c3cccs3)ccc21 [Compound 15, N-(4-(2-(Diethylamino)ethyl)-3,4-dihydro-2H-benzo[b][1,4]thiazin-7-yl)thiophene-2-carboximidamide]
17 | 205 | 34 | 7 | 58.7 | N=C(Nc1ccc2c(c1)SCCN2CCNCCO)c1cccs1 [Compound 16, N-(4-(2-(2-hydroxyethylamino)ethyl)-3,4-dihydro-2H-benzo[b][1,4]thiazin-7-yl)thiophene-2-carboximidamide dihydrochloride]
